Source: paper PMC7228129, “Evaluation of Developmental Toxicity, Developmental Neurotoxicity, and Tissue Dose in Zebrafish Exposed to GenX and Other PFAS” (Environmental Health Perspectives, 2020)
“And” between values parts separate entries of the source, which are not always exact repeats. Equal entries are not always repeated. Where two headings read alike, the source gives them in different places.

Experiments:
[1] = Tissue analysis (internal tissue dose of parent PFAS, bioconcentration factor); type: in vivo, Danio rerio; conditions: for Parent compound in fish tissue at 6 dpf: Study 1, daily exposure 0–5 dpf; for Parent compound in fish tissue at 6 dpf / BCFdry / concentration at 6 dpf: 0.4% DMSO; for Bioaccumulation ranking: among chemicals assessed, from BCF values; for BCFdry: 6-d zebrafish assay; for concentration at 6 dpf: zebrafish (Danio rerio), whole larvae (pools of 10, homogenised), other: waterborne exposure in the well medium, 6 dpf larvae, dry weight 44 μg per larva, read-out: Measured tissue dose; for Dil Corrected Reported Conc. (fMole/larvae), measured tissue concentration: zebrafish larvae, replicate samples per experiment/plate
Procedure: Zebrafish were exposed to 25.1, 44.8, or 80.0μM ADONA, PFOA, PFESA1, or PFHxA, 14.0, 25.1, or 44.8μM PFHxS, or 1.0, 1.8, or 3.1μM PFOS, or 0.4% DMSO. The highest concentration evaluated was the no observed effect concentration (NOEC) determined in Study 1. In Study 2, zebrafish were exposed to 25.1, 44.8, or 80.0μM GenX Free Acid or 0.4% DMSO. According to the previously described microtiter plate inclusion criterion, 15/15 plates were included in the study. Larvae were anesthetized by rapid cooling in chilled 10% HBSS. Groups of 10 anesthetized larvae were pooled to comprise one biological replicate ( n=4 ) in 500μL of 10% HBSS, flash frozen in liquid nitrogen, and stored at −80°C . In the case of ADONA, n=5 .
Tissue samples were prepared by protein precipitation. Flash frozen samples, consisting of pools of ten 6-dpf zebrafish larvae, were homogenized using ∼100mg of 1.0-mm diameter zirconia/silica beads and a Fast-Prep-24™ homogenizer (MP Biomedicals) in 100μL 0.1M formic acid fortified with the surrogate (i.e., PFNA). Protein was precipitated from the homogenate with 400μL of acetonitrile containing internal standards and separated by centrifugation at 14,000 rpm for 15 min at 4°C. Fifty microliters of the extract was diluted with 200μL aqueous 0.4 mM ammonium formate in the LC vial for analysis. Standards and samples were analyzed with Vanquish UPLC and Orbitrap Fusion mass spectrometer (Thermo Electron) operated in negative ESI mode. ESI source conditions were optimized for the [M-H]^− ion of PFAS as follows: spray voltage −3.5 kV , sheath gas 25 au (arbitrary units), aux gas 6 au, sweep gas 0 au, ion transfer tube temperature 300°C, and vaporizer temperature […]. High-resolution accurate mass (HRAM) MS1 scans were collected with the following parameters: detector type orbitrap, orbitrap resolution 30,000 full width at half maximum (FWHM), normal mass range, Use quadrapole isolation=true , scan range 70–700m/z , radio frequency (RF) lens 60%, automatic gain control (AGC) target 4.00×10^5 , max injection time of 50 ms , 1 microscan, data type set to profile, negative polarity, and source fragmentation disabled. Data-dependent orbitrap MSMS (ddMS2-OT) scans were collected for the [M-H]^− ion [ M-H-CO2 for GenX]^– using a target mass list for the eight PFAS and PFNA surrogate for identity confirmation. The apex detection was set to an expected peak width of 2 s at FWHM and desired apex peak window of 30%. The dynamic exclusion parameters were set to exclude after a one-time, 60-s exclusion duration, low and high mass tolerances of 10 ppm , and exclude isotope was set to true. The intensity threshold for collecting an MSMS scan was set to 2.5E+04 . Fragmentation was done by high-energy collisional dissociation (HCD). The ddMS2-OT scans were collected with the following parameters: orbitrap isolation mode, isolation window of 1.6m/z , isolation offset off, stepped HCD collision energy of 30%±10% , scan range of auto mass-to-charge ratio normal, orbitrap resolution of 30,000 FWHM, first mass 75m/z , max injection time of […], AGC target 5.00×10^4 , inject ions from available parallelizable time set to true, max injection time of 54 ms, 1 microscan, and data type set to centroid. UPLC separation was achieved using ACQUITY UPLC BEH C18 Column, 130Å , 1.7μM , 2.1mm×50mm (Waters Corp P/N 186,002,350) at 50°C with gradient elution at a flow rate of 300μL/min using 0.4 mM ammonium formate in acetonitrile and water with a 10-μL injection. Data collection, integration, calibration, and quantitation were performed using Xcalibur software (version 4.1; Thermo Electron). Concentration for each PFAS analyte was determined by internal standard technique using isotopically labeled internal standards and matrix-matched calibration standards. Quantitative analysis was performed using high-resolution MS1-extracted ion chromatograms. […]

zebrafish [2] = conditions: cited from earlier work; for EC50: previously published zebrafish DevTox assay data, read-out: EC50 for developmental toxicity
zebrafish [3] = conditions: Table 5 summary, cited from earlier work

Structure (SMILES)	Parent compound in fish tissue at 6 dpf [1]	Bioaccumulation ranking [1]	BCFdry ([1]; nominal 25.1 μM)	BCFdry ([1]; nominal 44.8 μM)	BCFdry ([1]; nominal 80.0 μM)	concentration at 6 dpf ([1]; nominal 25.1 μM daily 0–5 dpf)	concentration at 6 dpf ([1]; nominal 44.8 μM daily 0–5 dpf)	concentration at 6 dpf ([1]; nominal 80.0 μM daily 0–5 dpf)	Dil Corrected Reported Conc. (fMole/larvae), measured tissue concentration ([1]; exposure Concentration 25.1 µM)	Dil Corrected Reported Conc. (fMole/larvae), measured tissue concentration ([1]; exposure Concentration 44.8 µM)	Dil Corrected Reported Conc. (fMole/larvae), measured tissue concentration ([1]; exposure Concentration 80 µM)	EC50 (zebrafish [2]; ref Padilla et al. 2012)	EC50 (zebrafish [2]; ref Truong et al. 2014)	DNT assay phenotype (zebrafish [3]; ref Ulhaq et al. 2013b)	other results
O=C(O)C(F)(F)C(F)OC(F)(F)C(F)(F)C(F)(F)OC(F)(F)F (stereo not drawn) [ADONA, 4,8-Dioxa-3H-perfluorononanoate]	detectable levels	least bioaccumulative	0.95 L/kg	0.94 L/kg	0.56 L/kg	9490 ± 3100 ng/g	16000 ± 6290 ng/g	14900 ± 3110 ng/g	687.994 fMole/larvae and 814.543 fMole/larvae and 1674.31 fMole/larvae and 986.423 fMole/larvae and 1056.18 fMole/larvae	1721.39 fMole/larvae and 1579.99 fMole/larvae and 1307.54 fMole/larvae and 1119.74 fMole/larvae and 3082.15 fMole/larvae	1324.81 fMole/larvae and 2040.26 fMole/larvae and 1665.47 fMole/larvae and 1967.75 fMole/larvae and 1175.25 fMole/larvae	–	–	–	–
O=S(=O)(O)C(F)(F)C(F)(F)OC(F)(C(F)(F)F)C(F)(F)OC(F)=C(F)F (stereo not drawn) [PFESA1, Perfluoro-3,6-dioxa-4-methyl-7-octene-1-sulfonic acid]	detectable levels	least bioaccumulative	3.09 L/kg	2.62 L/kg	1.44 L/kg	23700 ± 17500 ng/g	37000 ± 17400 ng/g	43200 ± 4840 ng/g	4.79E+03 fMole/larvae and 1603 fMole/larvae and 2911 fMole/larvae and 78 fMole/larvae	2778 fMole/larvae and 2495 fMole/larvae	3514 fMole/larvae and 4409 fMole/larvae	–	–	–	–
O=C(O)C(F)(F)C(F)(F)C(F)(F)C(F)(F)C(F)(F)F [PFHxA, Perfluorohexanoic acid]	–	least bioaccumulative	0.46 L/kg	0.18 L/kg	0.24 L/kg	4970 ± 4400 ng/g	3280 ± 560 ng/g	8770 ± 4310 ng/g	643.192 fMole/larvae and 1721.28 fMole/larvae and 198.739 fMole/larvae and 224.57 fMole/larvae	344.178 fMole/larvae and 504.145 fMole/larvae and 437.515 fMole/larvae and 553.638 fMole/larvae	1323.26 fMole/larvae and 776.14 fMole/larvae and 638.759 fMole/larvae and 2174.95 fMole/larvae	–	–	–	–
O=S(=O)(O)C(F)(F)C(F)(F)C(F)(F)C(F)(F)C(F)(F)C(F)(F)F [PFHxS, Perfluorohexanesulfonic acid]	–	–	8.01 L/kg	9.30 L/kg	–	129000 ± 31500 ng/g	261000 ± 57200 ng/g	–	1.35E+04 fMole/larvae and 1.76E+04 fMole/larvae and 8.93E+03 fMole/larvae and 1.16E+04 fMole/larvae	2.76E+04 fMole/larvae and 3.50E+04 fMole/larvae and 2.15E+04 fMole/larvae and 2.07E+04 fMole/larvae	–	116 µM	115 µM	–	BCFdry ([1]; nominal 14.0 μM): 11.82 L/kg; concentration at 6 dpf ([1]; nominal 14.0 μM daily 0–5 dpf): 107000 ± 50100 ng/g; Dil Corrected Reported Conc. (fMole/larvae), measured tissue concentration ([1]; exposure Concentration 14 µM): 8.83E+03 fMole/larvae and 1.94E+04 fMole/larvae and 6.95E+03 fMole/larvae and 7.88E+03 fMole/larvae; DNT assay phenotype (zebrafish [3]; ref Khezri et al. 2017): Negative
O=C(O)C(F)(F)C(F)(F)C(F)(F)C(F)(F)C(F)(F)C(F)(F)C(F)(F)F [PFOA, Perfluoro-n-octanoic acid]	detectable levels	–	11.68 L/kg	6.52 L/kg	5.17 L/kg	116000 ± 25200 ng/g	124000 ± 29900 ng/g	171000 ± 41100 ng/g	16735.5 fMole/larvae and 10378.2 fMole/larvae and 12074.8 fMole/larvae and 10012 fMole/larvae	10919.7 fMole/larvae and 9223.5 fMole/larvae and 16062.6 fMole/larvae and 16554.8 fMole/larvae	21852.9 fMole/larvae and 22967.7 fMole/larvae and 14850.1 fMole/larvae and 12804.3 fMole/larvae	–	–	Hyperactivity	DevTox assay phenotype (zebrafish [2]; Table 5 summary, zebrafish, ref Hagenaars et al. 2011, Jantzen et al. 2016, Ulhaq et al. 2013a): Positive
O=S(=O)(O)C(F)(F)C(F)(F)C(F)(F)C(F)(F)C(F)(F)C(F)(F)C(F)(F)C(F)(F)F [PFOS, Perfluorooctanesulfonic acid]	–	most bioaccumulative	–	–	–	–	–	–	–	–	–	42.3 µM	3.5 µM	Hypoactivity	BCFdry ([1]; nominal 1.0 μM): 1,374.89 L/kg; BCFdry ([1]; nominal 1.8 μM): 1,348.46 L/kg; BCFdry ([1]; nominal 3.1 μM): 684.03 L/kg; concentration at 6 dpf ([1]; nominal 1.0 μM daily 0–5 dpf): 220000 ± 109000 ng/g; concentration at 6 dpf ([1]; nominal 1.8 μM daily 0–5 dpf): 422000 ± 183000 ng/g; concentration at 6 dpf ([1]; nominal 3.1 μM daily 0–5 dpf): 678000 ± 53500 ng/g; Dil Corrected Reported Conc. (fMole/larvae), measured tissue concentration ([1]; exposure Concentration 0.986 µM): 29113.1 fMole/larvae and 7862.61 fMole/larvae and 11812.2 fMole/larvae and 28665.6 fMole/larvae; Dil Corrected Reported Conc. (fMole/larvae), measured tissue concentration ([1]; exposure Concentration 1.76 µM): 24142 fMole/larvae and 18963.9 fMole/larvae and 47666.3 fMole/larvae and 57759 fMole/larvae; Dil Corrected Reported Conc. (fMole/larvae), measured tissue concentration ([1]; exposure Concentration 3.144 µM): 57262.1 fMole/larvae and 67321.8 fMole/larvae and 54771.6 fMole/larvae and 59188.7 fMole/larvae
